The values below come from US20240158412A1 (Faxian Therapeutics, LLC, priority 2021, published 2024).

By pIC50 is commonly meant the IC50 on a negative log10 scale, so that one unit is a factor of ten. A high value points to a low IC50.

pIC50: −log10 of the molar value.
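Also: fluorescence intensity readout of USP7 enzymatic activity, reaction incubated 90 min at room temperature.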

In this assay the target is USP7 (Homo sapiens, UniProt Q93009). The assay can be described thus: biochemical.
Chain of USP7 (Q93009 whole entry): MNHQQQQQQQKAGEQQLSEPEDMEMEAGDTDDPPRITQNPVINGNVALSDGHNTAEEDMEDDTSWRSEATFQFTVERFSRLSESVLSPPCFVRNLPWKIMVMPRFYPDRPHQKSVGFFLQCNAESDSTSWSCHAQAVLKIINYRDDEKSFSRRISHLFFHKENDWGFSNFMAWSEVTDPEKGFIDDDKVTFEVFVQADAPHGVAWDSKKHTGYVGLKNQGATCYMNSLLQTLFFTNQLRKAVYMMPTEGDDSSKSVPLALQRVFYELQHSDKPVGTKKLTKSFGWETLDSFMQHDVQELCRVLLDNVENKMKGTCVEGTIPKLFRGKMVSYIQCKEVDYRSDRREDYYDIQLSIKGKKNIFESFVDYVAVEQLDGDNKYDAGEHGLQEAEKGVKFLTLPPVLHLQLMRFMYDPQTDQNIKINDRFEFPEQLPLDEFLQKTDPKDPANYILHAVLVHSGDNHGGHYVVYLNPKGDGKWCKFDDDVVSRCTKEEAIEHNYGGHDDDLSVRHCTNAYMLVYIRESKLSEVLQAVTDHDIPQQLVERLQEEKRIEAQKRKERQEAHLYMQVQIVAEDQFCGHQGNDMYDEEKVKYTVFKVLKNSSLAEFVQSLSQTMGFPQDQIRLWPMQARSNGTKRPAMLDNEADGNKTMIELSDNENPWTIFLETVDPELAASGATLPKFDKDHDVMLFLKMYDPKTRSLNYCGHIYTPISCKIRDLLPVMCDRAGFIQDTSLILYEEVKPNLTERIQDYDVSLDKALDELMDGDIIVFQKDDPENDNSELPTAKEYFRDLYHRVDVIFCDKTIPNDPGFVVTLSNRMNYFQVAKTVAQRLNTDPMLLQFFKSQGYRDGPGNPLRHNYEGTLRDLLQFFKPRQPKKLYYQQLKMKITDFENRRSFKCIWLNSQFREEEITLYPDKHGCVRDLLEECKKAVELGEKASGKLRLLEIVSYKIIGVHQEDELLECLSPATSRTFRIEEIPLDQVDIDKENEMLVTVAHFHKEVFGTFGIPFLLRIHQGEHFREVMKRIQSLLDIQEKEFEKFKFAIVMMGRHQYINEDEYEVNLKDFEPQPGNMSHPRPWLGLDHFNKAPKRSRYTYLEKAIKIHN
Turning to `O=C1CCC(=O)N1Cc1cc2ncnc(-c3cc(Cl)cc4c3N([C@H]3CNC5(CCC5)C3)C[C@H]3C[C@@H]43)c2s1` [Example 167b, 1-((4-((1aS,7bR)-6-chloro-3-((R)-5-azaspiro[3.4]octan-7-yl)-1a,2,3,7b-tetrahydro-1H-cyclopropa[c]quinolin-4-yl)thieno[3,2-d]pyrimidin-6-yl)methyl)pyrrolidine-2,5-dione], the pIC50 is below 6.00. The result for `O=C1CCC(=O)N1Cc1cc2ncnc(-c3cc(Cl)cc4c3N([C@H]3CNC5(CCC5)C3)C[C@@H]3C[C@H]43)c2s1` [Example 167c, 1-((4-((1aR,7bS)-6-chloro-3-((R)-5-azaspiro[3.4]octan-7-yl)-1a,2,3,7b-tetrahydro-1H-cyclopropa[c]quinolin-4-yl)thieno[3,2-d]pyrimidin-6-yl)methyl)pyrrolidine-2,5-dione] reads 7.00 to 8.00.

Take `N#Cc1cc(-c2ccnc3cc(CN4C(=O)CCC4=O)sc23)c2c(c1)[C@@H]1C[C@@H]1CN2[C@@H]1CNC2(CCC2)C1` [Example 168, (1aS,7bR)-4-(2-((2,5-dioxopyrrolidin-1-yl)methyl)thieno[3,2-b]pyridin-7-yl)-3-((S)-5-azaspiro[3.4]octan-7-yl)-1a,2,3,7b-tetrahydro-1H-cyclopropa[c]quinoline-6-carbonitrile]: the pIC50 is above 8.00. Turning to `N#Cc1cc(-c2ccnc3cc(Cn4c(=O)ccn(CC(F)(F)F)c4=O)sc23)c2c(c1)[C@@H]1C[C@@H]1CN2[C@@H]1CNC2(CCC2)C1` [Example 169, (1aS,7bR)-4-(2-((2,6-dioxo-3-(2,2,2-trifluoroethyl)-3,6-dihydropyrimidin-1(2H)-yl)methyl)thieno[3,2-b]pyridin-7-yl)-3-((S)-5-azaspiro[3.4]octan-7-yl)-1a,2,3,7b-tetrahydro-1H-cyclopropa[c]quinoline-6-carbonitrile], the pIC50 was above 8.00. `NC(=O)c1cc(-c2ccnc3cc(Cn4c(=O)ccn(CC(F)(F)F)c4=O)sc23)c2c(c1)[C@@H]1C[C@@H]1CN2[C@@H]1CNC2(CCC2)C1` [Example 170, (1aS,7bR)-4-(2-((2,6-dioxo-3-(2,2,2-trifluoroethyl)-3,6-dihydropyrimidin-1(2H)-yl)methyl)thieno[3,2-b]pyridin-7-yl)-3-((S)-5-azaspiro[3.4]octan-7-yl)-1a,2,3,7b-tetrahydro-1H-cyclopropa[c]quinoline-6-carboxamide] gave a pIC50 above 8.00. For `CC1(C)C2C(=O)N(Cc3cc4nccc(-c5cc(Cl)cc6c5N([C@@H]5CNC7(CCC7)C5)CCO6)c4s3)C(=O)C21` (stereo partly drawn) [Example 172, 3-((7-(7-chloro-4-((S)-5-azaspiro[3.4]octan-7-yl)-3,4-dihydro-2H-benzo[b][1,4]oxazin-5-yl)thieno[3,2-b]pyridin-2-yl)methyl)-6,6-dimethyl-3-azabicyclo[3.1.0]hexane-2,4-dione] the value was 7.00 to 8.00; for `O=C1COc2cc(Cl)cc(-c3ccnc4cc(Cn5ncc(C6CC6)cc5=O)sc34)c2N1[C@@H]1CNC2(CCC2)C1` [Example 174, (S)-7-chloro-5-(2-((4-cyclopropyl-6-oxopyridazin-1(6H)-yl)methyl)thieno[3,2-b]pyridin-7-yl)-4-(5-azaspiro[3.4]octan-7-yl)-2H-benzo[b][1,4]oxazin-3(4H)-one], above 8.00. For `Cc1ccnn(Cc2cc3nccc(-c4cc(C(F)(F)F)cc5c4N([C@@H]4CNC6(CCC6)C4)CCO5)c3s2)c1=O` [Example 176b, (S)-2-((7-(4-(5-azaspiro[3.4]octan-7-yl)-7-(trifluoromethyl)-3,4-dihydro-2H-benzo[b][1,4]oxazin-5-yl)thieno[3,2-b]pyridin-2-yl)methyl)-4-methylpyridazin-3(2H)-one] the value was above 8.00; for `N#Cc1cc2c(c(-c3ccnc4cc(CN5C(=O)C6CC6C5=O)sc34)c1)N([C@H]1CNC3(CCCC3)C1)CCC2` (stereo partly drawn) [Example 178a, 8-(2-((2,4-dioxo-3-azabicyclo[3.1.0]hexan-3-yl)methyl)thieno[3,2-b]pyridin-7-yl)-1-((R)-1-azaspiro[4.4]nonan-3-yl)-1,2,3,4-tetrahydroquinoline-6-carbonitrile], 6.00 to 7.00; for `N#Cc1cc2c(c(-c3ccnc4cc(CN5C(=O)C6CC6C5=O)sc34)c1)N([C@@H]1CNC3(CCCC3)C1)CCC2` (stereo partly drawn) [Example 178b, 8-(2-((2,4-dioxo-3-azabicyclo[3.1.0]hexan-3-yl)methyl)thieno[3,2-b]pyridin-7-yl)-1-((S)-1-azaspiro[4.4]nonan-3-yl)-1,2,3,4-tetrahydroquinoline-6-carbonitrile], above 8.00. For `O=C1CCC(=O)N1Cc1cc2nccc(-c3cc(Cl)cc4c3N(C3CC5(CCCN5)C3)CCC4)c2s1` (centres unmarked) [Example 180, 1-((7-(6-chloro-1-(5-azaspiro[3.4]octan-2-yl)-1,2,3,4-tetrahydroquinolin-8-yl)thieno[3,2-b]pyridin-2-yl)methyl)pyrrolidine-2,5-dione] the value was 7.00 to 8.00; for `O=C1C2CC2C(=O)N1Cc1cc2nccc(-c3cc(Cl)cc4c3N([C@@H]3CN[C@@H](CO)C3)CCC4)c2s1` (stereo partly drawn) [Example 185, 3-((7-(6-chloro-1-((3S,5R)-5-(hydroxymethyl)pyrrolidin-3-yl)-1,2,3,4-tetrahydroquinolin-8-yl)thieno[3,2-b]pyridin-2-yl)methyl)-3-azabicyclo[3.1.0]hexane-2,4-dione], above 8.00.

For the compound `O=c1cc(C2CC2)cnn1Cc1cc2nccc(-c3cc(Cl)cc4c3N([C@@H]3CN[C@@H](CO)C3)CCC4)c2s1` [Example 186, 2-[[7-[6-chloro-1-[(3S,5R)-5-(hydroxymethyl)pyrrolidin-3-yl]-3,4-dihydro-2H-quinolin-8-yl]thieno[3,2-b]pyridin-2-yl]methyl]-5-cyclopropyl-pyridazin-3-one], the pIC50 was above 8.00. `O=c1cc(C2CC2)cnn1Cc1cc2nccc(-c3cc(Cl)cc4c3N([C@@H]3CN[C@H](CO)C3)CCC4)c2s1` [Example 187, 2-((7-(6-chloro-1-((3S,5S)-5-(hydroxymethyl)pyrrolidin-3-yl)-1,2,3,4-tetrahydroquinolin-8-yl)thieno[3,2-b]pyridin-2-yl)methyl)-5-cyclopropylpyridazin-3(2H)-one] gave a pIC50 above 8.00.

As to `CC1(c2cnn(Cc3cc4nccc(-c5cc(Cl)cc6c5N([C@@H]5CN[C@@H](CO)C5)CCC6)c4s3)c(=O)c2)CC1` [Example 188, 2-((7-(6-chloro-1-((3S,5R)-5-(hydroxymethyl)pyrrolidin-3-yl)-1,2,3,4-tetrahydroquinolin-8-yl)thieno[3,2-b]pyridin-2-yl)methyl)-5-(1-methylcyclopropyl)pyridazin-3(2H)-one], the negative logarithm of the IC50 (pIC50) is above 8.00. The result for `CC(C)(O)[C@H]1C[C@H](N2CCCc3cc(Cl)cc(-c4ccnc5cc(CN6C(=O)CCC6=O)sc45)c32)CN1` [Example 189, 1-((7-(6-chloro-1-((3S,5R)-5-(2-hydroxypropan-2-yl)pyrrolidin-3-yl)-1,2,3,4-tetrahydroquinolin-8-yl)thieno[3,2-b]pyridin-2-yl)methyl)pyrrolidine-2,5-dione] reads above 8.00. `CC(C)(C)c1cnn(Cc2cc3nccc(-c4cc(C#N)cc5c4N([C@@H]4CN[C@@H](CO)C4)CCC5)c3s2)c(=O)c1` [Example 190, 8-[2-[(4-tert-butyl-6-oxo-pyridazin-1-yl)methyl]thieno[3,2-b]pyridin-7-yl]-1-[(3S,5R)-5-(hydroxymethyl)pyrrolidin-3-yl]-3,4-dihydro-2H-quinoline-6-carbonitrile] gave a pIC50 above 8.00. Regarding `N#Cc1cc2c(c(-c3ccnc4cc(Cn5c(=O)ccn(C6CC(F)(F)C6)c5=O)sc34)c1)N([C@@H]1CN[C@@H](CO)C1)CCC2` [Example 191, 8-(2-((3-(3,3-difluorocyclobutyl)-2,6-dioxo-2,3-dihydropyrimidin-1(6H)-yl)methyl)thieno[3,2-b]pyridin-7-yl)-1-((3S,5R)-5-(hydroxymethyl)pyrrolidin-3-yl)-1,2,3,4-tetrahydroquinoline-6-carbonitrile], the pIC50 was above 8.00. For `N#Cc1cc(-c2ccnc3cc(Cn4ncc(C5(C(F)(F)F)CC5)cc4=O)sc23)c2c(c1)[C@@H]1C[C@@H]1CN2[C@@H]1CN[C@@H](CO)C1` [Example 194a, (1aS,7bR)-3-((3S,5R)-5-(hydroxymethyl)pyrrolidin-3-yl)-4-(2-((6-oxo-4-(1-(trifluoromethyl)cyclopropyl)pyridazin-1(6H)-yl)methyl)thieno[3,2-b]pyridin-7-yl)-1a,2,3,7b-tetrahydro-1H-cyclopropa[c]quinoline-6-carbonitrile] the value was above 8.00; for `COC[C@@]1(C)C[C@H](N2CCCc3cc(Cl)cc(-c4ccnc5cc(CN6C(=O)CCC6=O)sc45)c32)CN1` [Example 200, 1-((7-(6-chloro-1-((3S,5R)-5-(methoxymethyl)-5-methylpyrrolidin-3-yl)-1,2,3,4-tetrahydroquinolin-8-yl)thieno[3,2-b]pyridin-2-yl)methyl)pyrrolidine-2,5-dione], 7.00 to 8.00; for `C[C@@]1(C(=O)O)C[C@H](N2CCCc3cc(Cl)cc(-c4ccnc5cc(CN6C(=O)CCC6=O)sc45)c32)CN1` [Example 205, (2S,4S)-4-(6-chloro-8-(2-((2,5-dioxopyrrolidin-1-yl)methyl)thieno[3,2-b]pyridin-7-yl)-3,4-dihydroquinolin-1(2H)-yl)-2-methylpyrrolidine-2-carboxylic acid], above 8.00. On to `C[C@]1(CO)C[C@H](N2CCCc3cc(C#N)cc(-c4ccnc5cc(CN6C(=O)C7CC7C6=O)sc45)c32)CN1` (stereo partly drawn) [Example 206, 8-(2-((2,4-dioxo-3-azabicyclo[3.1.0]hexan-3-yl)methyl)thieno[3,2-b]pyridin-7-yl)-1-((3S,5R)-5-(hydroxymethyl)-5-methylpyrrolidin-3-yl)-1,2,3,4-tetrahydroquinoline-6-carbonitrile], for which the pIC50 was above 8.00. On to `C[C@]1(CO)C[C@H](N2CCCc3cc(Cl)cc(-c4ccnc5cc(Cn6ncc(C7(C(F)(F)F)CC7)cc6=O)sc45)c32)CN1` [Example 207, 2-((7-(6-chloro-1-((3S,5R)-5-(hydroxymethyl)-5-methylpyrrolidin-3-yl)-1,2,3,4-tetrahydroquinolin-8-yl)thieno[3,2-b]pyridin-2-yl)methyl)-5-(1-(trifluoromethyl)cyclopropyl)pyridazin-3(2H)-one], for which the pIC50 was above 8.00.
